According to ChEMBL document CHEMBL1124488 (J Med Chem, 1989):

Biological target: Mu-type opioid receptor (Cavia porcellus, UniProt P97266)
Assay: Inhibitory activity against opioid receptor mu of guinea pig brain using [3H]DAGO radioligand

Chain of Mu-type opioid receptor (P97266 whole entry): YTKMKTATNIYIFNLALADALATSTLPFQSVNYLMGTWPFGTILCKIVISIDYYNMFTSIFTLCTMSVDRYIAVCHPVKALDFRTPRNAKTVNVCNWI

Question: CN1CC[C@]23CCCC[C@H]2[C@H]1Cc1ccc(O)cc13 [LEVORPHANOL] was tested. Which IC50 did it give?
Answer: 0.6 nM
